The values that follow come from patent US20240216410A1, “METHODS AND COMPOSITIONS FOR TREATING CANCER THERAPY-INDUCED NEUTROPENIC FEVER AND/OR GVHD” (BOARD OF REGENTS, THE UNIVERSITY OF TEXAS SYSTEM, priority 2021, published 2024).

Data set [1] concerns intestinal microbiota. The data set can be described thus: Fecal bacterial density by 16S rRNA gene qPCR in normal mice given meropenem in drinking water. Format: in vivo. To be noted: 0.625 g/L meropenem in drinking water. How it is done:
To further explore a potential causal relationship between meropenem and intestinal GVHD, the effects of meropenem on GVHD in a mouse model of allo-HSCT were examined. A method of administering meropenem to mice was first developed that would better mimic the effects of meropenem on the intestinal microbiome of patients, which is typically given every 8 hours intravenously. Previously, antibiotics were administered subcutaneously to mice (25), and meropenem concentrations were quantified in the cecal lumen of mice 4, 8, 24, 48 and 96 hours after subcutaneous injection. […] Next, drinking water was evaluated as a means of continuously administering meropenem to mice, using bacterial density quantified by 16S ribosomal RNA (16S rRNA) gene quantitative PCR (qPCR) to gauge reductions of the intestinal microbiota.
Quantification of fecal bacterial density. Genomic DNA was isolated from stool as described above. qPCR was performed as previously described (66). In brief, 16S rRNA gene sequences were amplified from total fecal DNA using the primers 926F (5′-[…]-3′, where K is a G or a T; SEQ ID NO:2) and 1062R (5′-[…]-3′, where R is an A or a G; SEQ ID NO:3). […] To determined bacterial density, a plasmid with a 16S rRNA gene of a murine Blautia isolate was generated in the pCR4 backbone and used as a standard.
On the technique in general: Real-time PCR tracks product formation cycle by cycle.

The subject of data set [2] is neutrophils and dendritic cells in the colon. The data set can be described thus: Murine GVHD model: colonic infiltration by neutrophils and dendritic cells. It counts as in vivo. To be noted: meropenem-treated mice with GVHD. The source says: Altogether, these findings indicate that, in some cases, meropenem treatment leads to compromise of the colonic mucus layer, increased bacterial translocation and an aggravated inflammatory response.
Histological and immunohistochemistry analysis. […] Pathology scores were quantified by a blinded pathologist. […] Sections were imaged using an APERIO® AT2.
Lamina propria hematopoietic cell dissociation. Murine colons were isolated, dissected longitudinally and then on a shaker in 2% fetal bovine serum in PBS with 1 mM DL-dithiothreitol (Bioworld) at 37 °C for 20 min and subsequently incubated with 1.3 mM EDTA at 37° C. for 40 min. They were rinsed twice and digested with 0.3 mg/ml of type IV collagenase (C5138, SIGMA-ALDRICH®) at 37 °C for 45 min, homogenized, filtered, and washed.
Flow cytometric analysis. Monoclonal antibodies conjugated with fluorescein isothiocynate, phycoerythrin, phycoerythrin-Cy7, peridinin-chlorophyll protein complexes, allophycocyanin, or allophycocyanin-Cy7 were purchased from Tonbo Biosciences (San Diego, CA), EBIOSCIENCE™ (San Diego, CA), or BIOLEGEND® (San Diego, CA.). […] In flow cytometric analysis, at least 100,000 live samples were analyzed using BD LSRFORTESSA™ X-20 (BD Biosciences) and FlowJo software (Trec Star, OR). […]

Data set [3] deals with murine BT GH2 β-galactosidase, GH33 sialidase, GH29 α-L-fucosidase. The experiment in a line: RNA sequencing of stool from allo-HSCT mice: BT PUL expression. To be noted: day 18, allo-HSCT mice with vs without meropenem. It counts as in vivo, Bacteroides thetaiotaomicron. How it is done: Thus, in some cases, meropenem treatment during GVHD may lead to alterations in the behavior of BT. To evaluate this further, RNA sequencing of stool samples from allo-HSCT mice without and with meropenem treatment was performed. Also examined was the genome of mouse-derived BT isolate MDA-JAX BT001 (FIG. 23), and open reading frames (ORF) were identified, which were then assigned to polysaccharide utilization loci (PUL) using the Polysaccharide-Utilization Loci DataBase (PULDB) (41).
RNA sequencing and analysis. Approximately 30 mg of stool was freshly collected in 700 μL of ice cold QIAZOL® containing 200 μL of 0.1 mm diameter Zirconia Silica beads (11079101z, BioSpec). Samples were bead beaten twice for 2 min with a 30 second interval recovery. Samples were then centrifuged at 12,000 g for 1 min and the supernatant was collected for RNA isolation using the RNeasy mini kit (74104, QIAGEN®). […] RNA quantity and quality was determined using an Agilent 4200 TapeStation system (Agilent). […] The cDNA libraries were sequenced on the […]® MISEQ™ system to produce 1×300 bp single-end reads, resulting in ˜1 million reads per sample. […] The total reads of mouse stool samples were 950923±113406 (mean±standard deviation). […] Aligned mRNA expression changes were calculated using the Mann-Whitney U test in R software version 3.6.0 via RStudio version 1.2.1335. […]

As to `C[C@@H](O)[C@H]1C(=O)N2C(C(=O)O)=C(S[C@@H]3CN[C@H](C(=O)N(C)C)C3)[C@H](C)[C@H]12` [meropenem], in data set [1], the “reduction in fecal bacterial density” value was “substantial one-log reduction in fecal bacterial density”. For the same molecule, the “colonic tissue infiltration by neutrophils and dendritic cells” value in data set [2] is “marked colonic tissue infiltration by neutrophils and dendritic cells”. Also, the “expression in murine BT of GH2 β-galactosidase, GH33 sialidase and GH29 α-L-fucosidase” value in data set [3] is recorded as “upregulated expression”.
